# Test results from ChEMBL document CHEMBL4706683 (J Med Chem, 2021).
# The source made the active and inactive calls. The rule behind the calls is not given here.
# Experiments:
# [1] = Half life in Balb/c mouse at 5 mg/kg, ip administered as single dose measured upto 24 hrs by LC-MS/MS analysis; assay type: ADME, organism-based; settings: in vivo
# [2] = Apparent volume of distribution during terminal phase in Balb/c mouse at 2 mg/kg, iv administered as single dose measured upto 24 hrs by LC-MS/MS analysis; assay type: ADME, organism-based; settings: in vivo
# Plasmodium falciparum [3] = assay: Antiplasmodial activity against Plasmodium falciparum GB4 infected in human erythrocytes assessed as reduction in parasite growth incubated for 72 hrs by Giemsa staining based light microscopic method; assay type: functional, organism-based; settings: GB4, Erythrocyte
# Plasmodium falciparum [4] = assay: Antiplasmodial activity against artemisinin-resistant Plasmodium falciparum 6218 assessed as reduction in parasite survival at 700 nM incubated for 6 hrs followed by compound washout thrice and further cultured in compound free medium for 66 hrs by RSA; assay type: functional, organism-based
# Plasmodium falciparum [5] = assay: Antiplasmodial activity against synchronized ring stage Plasmodium falciparum 3D7 infected in human erythrocytes assessed as reduction in parasite growth incubated for 72 hrs by Giemsa staining based light microscopic method; assay type: functional, organism-based; settings: 3D7, Erythrocyte
# [6] = AUC (0 to infinity) in Balb/c mouse at 2 mg/kg, iv administered as single dose measured up to 24 hrs by LC-MS/MS analysis; assay type: ADME, organism-based; set-up: route intravenous, dose 2 mg/kg, time <=24; settings: in vivo
# [7] = Half life in Balb/c mouse at 2 mg/kg, iv administered as single dose measured upto 24 hrs by LC-MS/MS analysis; assay type: ADME, organism-based; settings: in vivo
# [8] = AUC (0 to t) in Balb/c mouse at 10 mg/kg, po administered as single dose measured upto 24 hrs by LC-MS/MS analysis; assay type: ADME, organism-based; set-up: route oral, dose 10 mg/kg, time <=24; settings: in vivo
# Plasmodium falciparum [9] = assay: (§1) Antimalarial activity against synchronized schizont stage transgenic Plasmodium falciparum 3D7 with C-terminal glmS-fused HDAC2 knockdown assessed as parasite growth inhibition pretreated with glucosamine followed by compound treatment and incubated for 4 hrs followed by compound washout for thrice and subsequent culturing for 68 hrs by SYBR Green 1 staining based analysis; assay type: functional, organism-based
# Plasmodium falciparum [10] = assay: as §1, with “3xTY1-fused” for “glmS-fused”; assay type: functional, organism-based
# Plasmodium falciparum [11] = assay: Antiplasmodial activity against artemisinin-resistant Plasmodium falciparum 6320 assessed as reduction in parasite survival at 700 nM incubated for 6 hrs followed by compound washout thrice and further cultured in compound free medium for 66 hrs by RSA; assay type: functional, organism-based
# Histone deacetylase 1 = Histone deacetylase 1 (Homo sapiens, UniProt Q13547); assay type: ADME, cell-based, Sf9
# [12] = Inhibition of recombinant full length C-terminal His/FLAG-tagged Plasmodium falciparum HDAC1 expressed in baculovirus infected sf9 insect cells using fluorogenic […] as substrate preincubated for 1.5 hrs followed by substrate addition and measured after 30 mins by HDAC-GloI/II assay
# Plasmodium falciparum [13] = assay: as §1, with “3xTY1-fused HDAC1” for “glmS-fused HDAC2”; assay type: functional, organism-based
# [14] = AUC (0 to t) in Balb/c mouse at 2 mg/kg, iv administered as single dose measured upto 24 hrs by LC-MS/MS analysis; assay type: ADME, organism-based; set-up: route intravenous, dose 2 mg/kg, time <=24; settings: in vivo
# Plasmodium falciparum [15] = assay: as §1, with “HDAC1” for “HDAC2”; assay type: functional, organism-based
# [16] = Toxicity in Balb/c mouse infected with blood stage Plasmodium yoelii assessed as recrudescence at 10 to 30 mg/kg, ip QD for 5 consecutive days and measured on day 20; assay type: organism-based; settings: in vivo, 120 h, dose 10-30 mg/kg, time 5 day
# [17] = Tmax in Balb/c mouse at 10 mg/kg, po administered as single dose measured upto 24 hrs by LC-MS/MS analysis; assay type: ADME, organism-based; settings: in vivo
# [18] = Half life in Balb/c mouse at 10 mg/kg, po administered as single dose measured upto 24 hrs by LC-MS/MS analysis; assay type: ADME, organism-based; settings: in vivo
# [19] = Clearance in mouse liver microsomes incubated upto 45 mins in presence of NADPH by LC-MS/MS analysis; assay type: ADME, Microsome; settings: read-out: CLH
# [20] = Toxicity in Balb/c mouse infected with sporozoites liver stage Plasmodium berghei assessed as animal death at 30 mg/kg, ip administered as single dose and measured upto 96 hrs; assay type: organism-based; settings: in vivo
# Plasmodium falciparum [21] = assay: Antiplasmodial activity against Plasmodium falciparum CP286 infected in human erythrocytes assessed as reduction in parasite growth incubated for 72 hrs by Giemsa staining based light microscopic method; assay type: functional, organism-based; settings: CP286, Erythrocyte
# [22] = Apparent clearance during terminal phase in Balb/c mouse at 5 mg/kg, ip administered as single dose measured upto 24 hrs by LC-MS/MS analysis; assay type: ADME, organism-based; settings: in vivo, 5 mg/kg, 24 h
# Plasmodium falciparum [23] = assay: Antiplasmodial activity against synchronized ring stage Plasmodium falciparum 3D7 infected in human erythrocytes assessed as new ring stage formation at 10 times IC50 incubated for 12 hrs followed by compound washout and measured at 50 hrs by […] analysis; assay type: functional, organism-based; settings: Erythrocyte
# [24] = Cmax in Balb/c mouse at 10 mg/kg, po administered as single dose measured upto 24 hrs by LC-MS/MS analysis; assay type: ADME, organism-based; set-up: route oral, dose 10 mg/kg, time <=24; settings: in vivo
# [25] = Toxicity in Balb/c mouse infected with blood stage Plasmodium yoelii assessed as animal death at 10 to 30 mg/kg, ip QD for 5 consecutive days and measured on day 6; assay type: organism-based; settings: in vivo, 120 h, dose 10-30 mg/kg, time 5 day
# [26] = Cmax in Balb/c mouse at 5 mg/kg, ip administered as single dose measured upto 24 hrs by LC-MS/MS analysis; assay type: ADME, organism-based; set-up: route intraperitoneal, dose 5 mg/kg, time <=24; settings: in vivo
# [27] = Half life in mouse liver microsomes incubated upto 45 mins in presence of NADPH by LC-MS/MS analysis; assay type: ADME, Microsome
# Plasmodium falciparum [28] = assay: Inhibition of Plasmodium falciparum HDAC assessed as hyperacetylation of histone H3 at 20 times IC50 incubated for 4 hrs by Western blot analysis
# Plasmodium berghei = assay: Antiplasmodial activity against liver stage Plasmodium berghei infected in Balb/c mouse assessed as reduction in parasitemia at 30 mg/kg, ip administered as single dose and measured upto 96 hrs by microscopic analysis; assay type: functional, organism-based; settings: time hrs <=96
# [29] = target: Histone deacetylase 3/Nuclear receptor corepressor 2 (HDAC3/NCoR2) (Homo sapiens, UniProt O15379); assay: Inhibition of human C-terminal His-tagged HDAC3/N-terminal GST-tagged NCOR2 expressed in baculovirus infected Sf9 cells using Ac-peptide as substrate preincubated for 15 mins followed by substrate and trypsin addition and further incubated for 60 mins
# Plasmodium falciparum [30] = assay: Antiplasmodial activity against artemisinin-resistant ring stage Plasmodium falciparum 6320 infected in human erythrocytes assessed as reduction in parasite growth incubated for 72 hrs by Giemsa staining based light microscopic method; assay type: functional, organism-based; settings: Plasmodium falciparum, 6320, Erythrocyte
# [31] = AUC (0 to t) in Balb/c mouse at 5 mg/kg, ip administered as single dose measured upto 24 hrs by LC-MS/MS analysis; assay type: ADME, organism-based; set-up: route intraperitoneal, dose 5 mg/kg, time <=24; settings: in vivo
# Sequence of Histone deacetylase 1 (Q13547 whole entry): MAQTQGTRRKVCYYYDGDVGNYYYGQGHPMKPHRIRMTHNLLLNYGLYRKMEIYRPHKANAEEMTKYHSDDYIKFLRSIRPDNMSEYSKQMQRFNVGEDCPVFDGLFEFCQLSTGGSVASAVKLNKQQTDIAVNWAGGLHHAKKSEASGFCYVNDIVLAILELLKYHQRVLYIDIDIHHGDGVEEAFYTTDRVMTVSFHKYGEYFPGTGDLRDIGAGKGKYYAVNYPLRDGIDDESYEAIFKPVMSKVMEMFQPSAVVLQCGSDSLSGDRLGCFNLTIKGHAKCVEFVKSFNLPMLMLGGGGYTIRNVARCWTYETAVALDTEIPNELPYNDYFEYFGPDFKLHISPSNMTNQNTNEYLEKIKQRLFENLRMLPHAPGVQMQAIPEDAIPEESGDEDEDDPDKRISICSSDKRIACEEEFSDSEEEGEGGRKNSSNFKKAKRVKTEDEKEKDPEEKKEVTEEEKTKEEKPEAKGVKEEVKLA
# Sequence of Histone deacetylase 3/Nuclear receptor corepressor 2 (HDAC3/NCoR2) (O15379 whole entry): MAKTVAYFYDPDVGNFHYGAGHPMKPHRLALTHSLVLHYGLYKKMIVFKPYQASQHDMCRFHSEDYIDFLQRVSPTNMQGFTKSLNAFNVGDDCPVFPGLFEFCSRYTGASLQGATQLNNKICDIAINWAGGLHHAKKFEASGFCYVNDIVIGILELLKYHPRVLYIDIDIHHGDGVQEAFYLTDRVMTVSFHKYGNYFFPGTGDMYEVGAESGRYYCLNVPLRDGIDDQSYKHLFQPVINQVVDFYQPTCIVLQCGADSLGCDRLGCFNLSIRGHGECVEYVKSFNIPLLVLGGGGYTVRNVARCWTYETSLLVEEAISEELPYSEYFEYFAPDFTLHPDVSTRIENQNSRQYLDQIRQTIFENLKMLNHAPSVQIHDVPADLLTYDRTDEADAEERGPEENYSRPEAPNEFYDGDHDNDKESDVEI
# Sequence of Histone deacetylase 3/Nuclear receptor corepressor 2 (HDAC3/NCoR2) (Q9Y618 whole entry, further chain): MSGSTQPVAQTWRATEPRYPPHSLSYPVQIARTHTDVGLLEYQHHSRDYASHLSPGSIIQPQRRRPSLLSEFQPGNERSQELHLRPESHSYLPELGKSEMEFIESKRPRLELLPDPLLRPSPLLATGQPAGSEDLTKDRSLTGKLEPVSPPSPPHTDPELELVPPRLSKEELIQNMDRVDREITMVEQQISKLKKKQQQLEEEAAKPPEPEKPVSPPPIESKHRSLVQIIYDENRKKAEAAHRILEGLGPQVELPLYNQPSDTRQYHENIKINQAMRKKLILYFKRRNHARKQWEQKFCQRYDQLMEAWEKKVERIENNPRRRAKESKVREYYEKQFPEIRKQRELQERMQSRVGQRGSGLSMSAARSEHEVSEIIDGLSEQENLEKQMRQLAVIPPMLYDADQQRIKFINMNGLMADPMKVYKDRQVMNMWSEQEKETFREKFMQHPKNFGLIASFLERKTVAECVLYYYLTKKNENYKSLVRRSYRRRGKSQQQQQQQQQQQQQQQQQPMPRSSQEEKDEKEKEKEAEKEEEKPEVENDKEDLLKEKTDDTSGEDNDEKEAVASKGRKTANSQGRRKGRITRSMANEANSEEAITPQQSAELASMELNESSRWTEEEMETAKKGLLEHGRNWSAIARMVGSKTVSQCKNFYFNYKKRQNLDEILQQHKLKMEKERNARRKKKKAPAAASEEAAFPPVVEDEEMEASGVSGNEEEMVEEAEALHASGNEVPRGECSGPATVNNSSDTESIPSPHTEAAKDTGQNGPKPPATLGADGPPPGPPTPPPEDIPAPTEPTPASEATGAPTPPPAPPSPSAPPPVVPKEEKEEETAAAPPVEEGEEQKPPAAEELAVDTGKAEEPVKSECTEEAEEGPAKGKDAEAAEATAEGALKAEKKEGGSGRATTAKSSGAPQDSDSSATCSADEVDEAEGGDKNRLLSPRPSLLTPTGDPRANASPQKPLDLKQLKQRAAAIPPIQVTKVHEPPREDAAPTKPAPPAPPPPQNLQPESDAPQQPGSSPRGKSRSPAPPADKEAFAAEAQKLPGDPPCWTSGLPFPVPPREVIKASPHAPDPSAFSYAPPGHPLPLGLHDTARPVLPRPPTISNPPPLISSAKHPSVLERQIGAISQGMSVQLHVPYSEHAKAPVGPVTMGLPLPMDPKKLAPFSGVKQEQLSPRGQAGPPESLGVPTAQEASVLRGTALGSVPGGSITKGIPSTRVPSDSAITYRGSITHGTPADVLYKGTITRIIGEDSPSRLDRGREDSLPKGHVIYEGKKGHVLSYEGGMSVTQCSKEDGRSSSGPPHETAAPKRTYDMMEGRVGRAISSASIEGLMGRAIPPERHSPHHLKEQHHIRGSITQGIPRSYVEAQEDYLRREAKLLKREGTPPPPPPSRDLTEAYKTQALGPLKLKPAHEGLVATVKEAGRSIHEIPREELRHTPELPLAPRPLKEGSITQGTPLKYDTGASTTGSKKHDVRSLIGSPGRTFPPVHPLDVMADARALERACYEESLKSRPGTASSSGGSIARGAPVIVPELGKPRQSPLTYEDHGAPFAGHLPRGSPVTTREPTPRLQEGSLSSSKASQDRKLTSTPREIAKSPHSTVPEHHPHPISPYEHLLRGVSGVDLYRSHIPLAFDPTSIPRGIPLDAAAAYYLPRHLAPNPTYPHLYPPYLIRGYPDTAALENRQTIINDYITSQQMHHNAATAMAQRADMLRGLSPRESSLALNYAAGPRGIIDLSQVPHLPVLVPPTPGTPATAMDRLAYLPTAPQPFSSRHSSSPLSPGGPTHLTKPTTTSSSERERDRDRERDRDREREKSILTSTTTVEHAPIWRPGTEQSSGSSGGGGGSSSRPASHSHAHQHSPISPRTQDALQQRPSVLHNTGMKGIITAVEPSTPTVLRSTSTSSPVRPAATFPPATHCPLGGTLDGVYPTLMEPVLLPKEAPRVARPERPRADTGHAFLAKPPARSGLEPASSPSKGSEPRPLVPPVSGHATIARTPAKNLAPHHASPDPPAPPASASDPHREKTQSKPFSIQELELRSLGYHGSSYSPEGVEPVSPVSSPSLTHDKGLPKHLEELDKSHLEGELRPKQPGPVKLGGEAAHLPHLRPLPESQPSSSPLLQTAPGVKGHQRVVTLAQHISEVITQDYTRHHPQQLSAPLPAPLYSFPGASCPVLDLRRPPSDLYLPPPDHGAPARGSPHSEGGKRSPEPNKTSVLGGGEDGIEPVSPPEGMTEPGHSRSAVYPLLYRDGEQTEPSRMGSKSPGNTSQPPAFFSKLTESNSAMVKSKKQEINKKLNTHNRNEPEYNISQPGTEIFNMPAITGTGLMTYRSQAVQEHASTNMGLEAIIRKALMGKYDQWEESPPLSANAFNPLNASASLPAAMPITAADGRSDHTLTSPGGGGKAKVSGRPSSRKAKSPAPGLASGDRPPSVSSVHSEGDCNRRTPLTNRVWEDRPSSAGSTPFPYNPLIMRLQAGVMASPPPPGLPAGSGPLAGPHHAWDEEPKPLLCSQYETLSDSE
compound,measurement,setting,value
Cl.O=C(NO)c1cnc(N2CCC3(CCN(Cc4c[nH]c5ccccc45)C3)CC2)nc1,t1/2,[1],26.4 min
same,Vz/F,[2],10.3 L/kg
same,IC50,Plasmodium falciparum [3],3.9 nM
same,Activity,Plasmodium falciparum [4],Active
same,IC50,Plasmodium falciparum [5],3.19 nM
same,AUC(0-inf),[6],119 ng·h/mL
same,half-life,[7],43.2 min
same,AUC(0-t) at 24 h,[8],2.94 ng·h/mL
same,IC50,Plasmodium falciparum [9],69.5 nM
same,IC50,Plasmodium falciparum [10],52.2 nM
same,Activity,Plasmodium falciparum [11],Active
same,IC50,Histone deacetylase 1,0.58 nM
same,IC50,[12],0.343 nM
same,IC50,Plasmodium falciparum [13],32.3 nM
same,AUC(0-t) at 24 h,[14],117 ng·h/mL
same,IC50,Plasmodium falciparum [15],4.3 nM
same,Activity,[16],Toxic
same,Tmax,[17],15 min
same,half-life,[18],104 min
same,CLint scaled,[19],121 mL/min/kg
same,Activity,[20],Non-Toxic
same,IC50,Plasmodium falciparum [21],4.26 nM
same,CLz/F,[22],567 mL/min/kg
same,Activity,Plasmodium falciparum [23],Active
same,Cmax,[24],2.49 ng/mL
same,Activity,[25],Non-Toxic
same,Cmax,[26],108 ng/mL
same,half-life,[27],45 min
same,inhibition,Plasmodium falciparum [28],Active
same,Activity,Plasmodium berghei,Active
same,IC50,[29],3 nM
same,IC50,Plasmodium falciparum [30],2.9 nM
same,AUC(0-t) at 24 h,[31],81.9 ng·h/mL
